The source of these data is PubChem BioAssay (NCI).

Test systems include ACHN renal; RXF 393 renal; NCI-H23 lung; NCI/ADR-RES ovarian; OVCAR-8 ovarian; CCRF-CEM leukemia; M14 melanoma; HCT-116 colon; SK-MEL-5 melanoma; NCI-H226 lung.
Holding throughout (experiment): NCI anticancer screen, dose series, 48 h

Structures are written as SMILES.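 The compound was tested at five concentrations on cells cultured in 96-well plates, with a 48-hour exposure period. TGI is the concentration that stops growth completely.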

Turning to `Cc1ccc(O)c(C2=CC3=NNC(=O)C3C(c3cccc(Cl)c3)C2)c1` (configuration not stated), the TGI with ACHN renal is > 100 µM; in the test with RXF 393 renal it was 9.62 µM; with NCI-H23 lung it was > 100 µM; with NCI/ADR-RES ovarian, > 100 µM; in the test on OVCAR-8 ovarian it was 77.3 µM; in the test on CCRF-CEM leukemia, > 100 µM. The TGI with M14 melanoma, in the test with HCT-116 colon and with SK-MEL-5 melanoma was > 100 µM each time.
With `CO/N=C\c1ccc2c(c1)Sc1ccccc1O2`, the TGI in the test with ACHN renal, in the test on RXF 393 renal, in the test with NCI-H23 lung, with NCI/ADR-RES ovarian, in the test on OVCAR-8 ovarian and with NCI-H226 lung was > 100 µM each time. Further, the TGI with M14 melanoma and in the test with HCT-116 colon was > 100 µM in each case.
Take `C1CCCCC2(CCCCCCCCC3(CCC1)SCCS3)SCCS2`: the TGI in the test on ACHN renal, in the test on NCI-H23 lung, in the test with NCI/ADR-RES ovarian, in the test with OVCAR-8 ovarian, with NCI-H226 lung and with M14 melanoma was > 100 µM each time. The TGI in the test with HCT-116 colon and in the test with SK-MEL-5 melanoma was > 100 µM throughout.
In the case of `O=C1CCC[C@H]2O[C@@H](COC(=O)c3ccccc3)C[C@H]2O1`, the TGI in the test with ACHN renal, with NCI-H23 lung, with NCI/ADR-RES ovarian, in the test on OVCAR-8 ovarian, with CCRF-CEM leukemia and in the test on NCI-H226 lung was > 100 µM each time. Moreover, the TGI in the test on M14 melanoma and in the test with SK-MEL-5 melanoma was > 100 µM each time.
On to `O=C1CCCC/C1=C\c1ccc([N+](=O)[O-])cc1`, for which the TGI stood at 68.1 µM in the test with ACHN renal; 54.8 µM in the test on NCI-H23 lung; 57.1 µM in the test on NCI/ADR-RES ovarian; 37.1 µM with OVCAR-8 ovarian; 30.4 µM in the test on CCRF-CEM leukemia; 40.8 µM with M14 melanoma. In addition, the TGI is 25.7 µM in the test with HCT-116 colon and > 100 µM with SK-MEL-5 melanoma.
As to `COc1ccc2oc(S(=O)(=O)N3CC(CCl)c4ccc(N)cc43)cc2c1` (configuration not stated), the TGI is > 94.6 µM with ACHN renal; > 100 µM in the test with NCI-H23 lung; > 72 µM with NCI/ADR-RES ovarian; > 28.3 µM in the test with OVCAR-8 ovarian; 12.7 µM with CCRF-CEM leukemia; 1.77 µM in the test with NCI-H226 lung. Also, the TGI in the test with M14 melanoma was > 100 µM; in the test with HCT-116 colon, > 8.26 µM; in the test on SK-MEL-5 melanoma, 4.95 µM.
For `Cn1c(=Nc2ccc(Cl)cc2)sc2ccccc21`, the TGI with ACHN renal, in the test on RXF 393 renal, with NCI-H23 lung, in the test on NCI/ADR-RES ovarian, in the test with OVCAR-8 ovarian and in the test on CCRF-CEM leukemia was > 100 µM throughout. The TGI in the test on NCI-H226 lung, in the test with HCT-116 colon and with SK-MEL-5 melanoma was > 100 µM throughout.
In the case of `COc1ccc(-c2c(-c3ccccc3)c(C)c3ccccn23)cc1`, the TGI in the test on ACHN renal, in the test with NCI-H23 lung, in the test with NCI/ADR-RES ovarian, in the test with OVCAR-8 ovarian, in the test with CCRF-CEM leukemia and in the test with NCI-H226 lung was > 100 µM in each case. In addition, the TGI in the test with M14 melanoma, in the test on HCT-116 colon and in the test on SK-MEL-5 melanoma was > 100 µM each time.
Regarding `COC(=O)CCC1(CCC(=O)OC)CCCCCCC(CCC(=O)OC)(CCC(=O)OC)C(=O)C1=O`, the TGI in the test on ACHN renal, with RXF 393 renal, with NCI-H23 lung, with NCI/ADR-RES ovarian, with OVCAR-8 ovarian and in the test on NCI-H226 lung was > 100 µM each time. The TGI in the test with M14 melanoma, in the test on HCT-116 colon and in the test with SK-MEL-5 melanoma was > 100 µM in each case.
Turning to `O=C1C(CO)=C[C@H](O)[C@H]2O[C@@H]12`, the TGI with RXF 393 renal amounted to 402 µM; with NCI-H23 lung it was 588 µM; in the test on NCI/ADR-RES ovarian it was 449 µM; in the test with OVCAR-8 ovarian, 325 µM; in the test on CCRF-CEM leukemia, 418 µM; in the test with NCI-H226 lung, 371 µM. In addition, the results for the TGI with HCT-116 colon and in the test with SK-MEL-5 melanoma were 225 µM and 389 µM, respectively.
As to `CCC(C)C(N)C(=O)N/N=C\c1c2c(nc3ccccc13)-c1cc3c(c(=O)n1C2)COC(=O)[C@]3(O)CC` (some centres not stated), the TGI in the test on ACHN renal was 0.575 µM; with RXF 393 renal it was 0.218 µM; in the test on NCI-H23 lung, 0.401 µM; with OVCAR-8 ovarian it was > 20 µM; in the test with NCI-H226 lung, 1.66 µM; in the test on M14 melanoma, 1.6 µM. For the same compound, the results for the TGI in the test on HCT-116 colon and in the test with SK-MEL-5 melanoma were 2.96 µM and 0.452 µM, respectively.
`COc1ccc2cc(CNCCCCCCCCNCc3ccc4cc(OC)ccc4c3)ccc2c1`: the TGI in the test on ACHN renal is 10.3 µM; in the test on RXF 393 renal it was > 100 µM; with NCI-H23 lung, > 100 µM; in the test with NCI/ADR-RES ovarian it was > 100 µM; in the test on CCRF-CEM leukemia, 7.27 µM; in the test with NCI-H226 lung, > 100 µM. The TGI with HCT-116 colon and in the test on SK-MEL-5 melanoma was > 100 µM throughout.
With `O=c1[nH]ncc2[nH]c3c4ccccc4ccc3c12`, the TGI in the test on ACHN renal, with RXF 393 renal, in the test with NCI/ADR-RES ovarian, with OVCAR-8 ovarian, in the test on CCRF-CEM leukemia and in the test with M14 melanoma was > 100 µM each time. The TGI with HCT-116 colon and in the test on SK-MEL-5 melanoma was > 100 µM throughout.
In the case of `O=C(N=Nc1ccc(Cl)cc1Cl)NNc1ccc(Cl)cc1Cl`, the TGI in the test on ACHN renal was determined as 42.5 µM; in the test with NCI-H23 lung, 53 µM; with OVCAR-8 ovarian it was 37.6 µM; in the test with CCRF-CEM leukemia, 59.6 µM; in the test with NCI-H226 lung, 48.2 µM; with HCT-116 colon, 28.7 µM. Further, the TGI with SK-MEL-5 melanoma is 29.2 µM.
As to `N#Cc1c(=O)c2ccccc2n2ccccc12`, the TGI with ACHN renal, in the test on NCI-H23 lung, with NCI/ADR-RES ovarian, in the test with OVCAR-8 ovarian, in the test on CCRF-CEM leukemia and with NCI-H226 lung was > 100 µM throughout. The TGI with HCT-116 colon and in the test on SK-MEL-5 melanoma was > 100 µM in each case.
On to `c1ccc2c(c1)NCc1cc3ccccc3nc1O2`, for which the TGI in the test on RXF 393 renal, in the test on NCI-H23 lung, with NCI/ADR-RES ovarian, with OVCAR-8 ovarian, in the test with CCRF-CEM leukemia and in the test with NCI-H226 lung was > 100 µM throughout. Besides, the TGI in the test with HCT-116 colon and with SK-MEL-5 melanoma was > 100 µM in each case.
